10 molecules from publication PMC8408276, “Distinct neuropeptide-receptor modules regulate a sex-specific behavioral response to a pheromone” (Communications Biology, 2021) can be followed below.

Entries after “also recorded” stand apart in the source; their conditions may differ. Where a SMILES comes first, the peptide text is derived from it. Where no end group is shown, it is not given here.

One test has as its target T1, NPR-10B (Caenorhabditis elegans, UniProt Q6EUU1).
T1 sequence (Q6EUU1 1-362): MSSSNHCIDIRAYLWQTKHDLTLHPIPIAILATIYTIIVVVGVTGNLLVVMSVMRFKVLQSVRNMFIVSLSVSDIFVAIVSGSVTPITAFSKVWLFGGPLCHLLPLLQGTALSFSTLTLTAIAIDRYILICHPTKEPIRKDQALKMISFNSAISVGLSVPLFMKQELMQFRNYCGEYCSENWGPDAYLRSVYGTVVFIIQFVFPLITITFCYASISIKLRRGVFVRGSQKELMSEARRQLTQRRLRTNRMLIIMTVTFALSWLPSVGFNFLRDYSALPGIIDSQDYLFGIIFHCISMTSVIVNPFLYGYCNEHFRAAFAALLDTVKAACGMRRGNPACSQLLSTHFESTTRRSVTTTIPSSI
Put plainly: In vitro GPCR activation assay (CHO-K1, aequorin, Gα16), NPR-10B. In kind it is cell-based, C. elegans. The conditions noted are these: for EC50: NPR-10B in CHO-K1 cells with mtAEQ aequorin and human Gα16, peptide 1 pM to 10 µM, n ≥ 6, Fig. 4i. The method, then:
(§1) The GPCR activation assay was performed as previously described[66],[74]. Briefly, npr-10 and frpr-16 cDNAs were cloned into the pcDNA3.1 TOPO expression vector (Thermo Fisher Scientific). A CHO-K1 cell line (PerkinElmer, ES-000-A24) stably expressing apo-aequorin targeted to the mitochondria (mtAEQ) and human Gα16 was transiently transfected with the receptor cDNA construct or the empty pcDNA3.1 vector using Lipofectamine LTX and Plus reagent (Thermo Fisher Scientific). Cells were shifted to 28 °C one day later and allowed to incubate for 24 h. On the day of the assay, cells were collected in BSA medium (DMEM/Ham’s F12 with 15 mM HEPES, without phenol red, 0.1% BSA) and loaded with […] coelenterazine h (Thermo Fisher Scientific) for 4 h at room temperature. The incubated cells were then added to synthetic peptides dissolved in DMEM/BSA, and luminescence was measured for 30 s at 496 nm using a Mithras LB940 (Berthold Technologies) or MicroBeta LumiJet luminometer (PerkinElmer). After 30 s of readout, 0.1% triton X-100 was added to lyse the cells, resulting in a maximal calcium response that was measured for 10 s. After initial screening, concentration-response curves were constructed for HPLC-purified FLP-3 peptides by subjecting the transfected cells to each peptide in a concentration range from 1 pM to 10 µM. Cells transfected with an empty vector were used as a negative control. Assays were performed in triplicate on at least two independent days. Concentration-response curves were fitted using Prism v. 7 (nonlinear regression analysis with a sigmoidal concentration-response equation).

Another test concerns the target T2, FRPR-16 (Caenorhabditis elegans, UniProt Q21957).
T2 sequence (Q21957 1-340): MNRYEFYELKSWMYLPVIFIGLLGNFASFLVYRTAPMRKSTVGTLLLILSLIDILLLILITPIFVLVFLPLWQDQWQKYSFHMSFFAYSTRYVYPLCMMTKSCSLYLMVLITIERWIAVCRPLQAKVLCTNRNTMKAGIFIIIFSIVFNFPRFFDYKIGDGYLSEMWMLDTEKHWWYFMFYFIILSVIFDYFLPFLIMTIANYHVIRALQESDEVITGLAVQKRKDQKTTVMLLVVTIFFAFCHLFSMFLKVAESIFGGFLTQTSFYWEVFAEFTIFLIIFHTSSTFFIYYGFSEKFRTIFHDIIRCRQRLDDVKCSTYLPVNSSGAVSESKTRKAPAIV
Put plainly: In vitro GPCR activation assay (CHO-K1, aequorin, Gα16), FRPR-16. In kind it is cell-based, C. elegans. The conditions noted are these: for EC50: FRPR-16 in CHO-K1 cells with mtAEQ aequorin and human Gα16, peptide 1 pM to 10 µM, n ≥ 6, Fig. 4i. As to the method:
as §1

The next test relates to C. elegans. Put plainly: Single worm attraction assay (SWAA). The conditions noted are these: flp-3 lof males; Supplementary Fig. 5. Format: in vivo. The method, then:
We adapted the spot retention assay (Supplementary Fig. 1)[28],[38] to allow for better characterization of individual worm behavior and robust interrogation of attraction to small molecules. We first compared the attractiveness of 1 µM ascr#8 (Fig. 1a, inset) across multiple strains of C. elegans (the wild-type N2 strain, the high incidence of male him-5 and him-8 strains, and the chemosensory cilia defective osm-3), using our novel behavioral assay, the single worm attraction assay (SWAA) (Fig. 1a). In this assay, individual animals are placed directly into the spot of the ascaroside cue (A) while simultaneously removing any potential of male–male contact. A spatial control is included throughout the assay plate to allow us to investigate any innate differences in the number of visits to the well center, or the time spent therein, of which we have only found one strain to date with differences in male dwell time (Fig. 1a). Likewise, a vehicle control (V) is also included, to account of any changes in dwell time that are driven by the components of the vehicle. The outer forty wells of a 48-well suspension culture plate (Olympus Plastics, Cat #: 25-103) were seeded with 200 µL of standard NGM agar. To prepare the plates for the assay, they were acclimated to room temperature, at which point each well was seeded with 65 µL of OP50 E. coli. […] A single worm was placed in each of the 10 wells to be assayed, and the plate was transferred to a light source and camera and recorded for 15 m. […] Raw dwell time values were calculated by subtracting the time a worm exited the cue (center of the well in spatial controls), from the time it entered, as in the SRA[14]. This was determined per visit, and the average dwell time was calculated for each animal in the quadrant. Averages of the four-quadrant means were determined per plate, and a minimum of five plates were assayed per strain/condition. The mean raw dwell time across five plates was calculated and used for statistical analyses and graphical display. […] The number of visits per-worm was calculated, and the average visit count determined per quadrant, and per plate. The average visit count across five plates was calculated and used for statistical analyses and graphical display. An “attractive visit” was first determined for each plate as any visit greater than two standard deviations above the mean dwell time within the vehicle control for that plate. Any individual visit meeting this threshold was scored as a “1”, and any below was scored a “0”. The percent visits per-worm that were attractive was determined, and the average of each quadrant taken. […] The average percent of attractive visits across five plates was calculated and used for statistical analyses and graphical display. […]

A further test has as its system NPR-10A. Put plainly: In vitro GPCR activation assay (CHO-K1, aequorin, Gα16), NPR-10A. In kind it is cell-based, C. elegans. Particulars: CHO-K1 aequorin/Gα16 calcium response; Supplementary Fig. 10a. The method, then:
This peptide contains an R-to-K mutation within the C-terminal motif, which may explain the lack of receptor activation.
as §1, with “After initial screening, concentration-response curves were constructed for HPLC-purified FLP-3 peptides by subjecting the transfected cells to each peptide in a concentration range from 1 pM to 10 µM. Cells transfected with an empty vector were used as a negative control. Assays were performed in triplicate on at least two independent days. Concentration-response curves were fitted using Prism v. 7 (nonlinear regression analysis with a sigmoidal concentration-response equation).” left out

The mark [1] stands for this setting: CHO-K1 aequorin/Gα16 calcium response.

Turning to `CSCC[C@H](NC(=O)[C@@H](NC(=O)CNC(=O)[C@H](CC(C)C)NC(=O)[C@@H]1CCCN1C(=O)[C@@H](N)CO)[C@@H](C)O)C(=O)N[C@@H](CCCNC(=N)N)C(=O)N[C@@H](Cc1ccccc1)C(N)=O` [FLP-3-1, SPLGTMRFamide] (H-SPLGTMRF-NH2), the EC50 on NPR-10B (luminescence 30 s) was 0.262 µM; at FRPR-16 (luminescence 30 s) it was 0.0074 µM.
Take `CSCC[C@H](NC(=O)[C@@H](NC(=O)CNC(=O)[C@H](CC(C)C)NC(=O)[C@@H]1CCCN1C(=O)[C@@H](N)[C@@H](C)O)[C@@H](C)O)C(=O)N[C@@H](CCCNC(=N)N)C(=O)N[C@@H](Cc1ccccc1)C(N)=O` [FLP-3-2, TPLGTMRFamide] (H-TPLGTMRF-NH2): the EC50 at NPR-10B (luminescence 30 s) came out at 0.367 µM; at FRPR-16 (luminescence 30 s), 0.0317 µM.
For `CSCC[C@H](NC(=O)[C@@H](NC(=O)CNC(=O)[C@H](CC(C)C)NC(=O)[C@@H]1CCCN1C(=O)[C@H](CCC(=O)O)NC(=O)[C@H](CCC(=O)O)NC(=O)[C@H](C)NC(=O)[C@@H](N)CCC(=O)O)[C@@H](C)O)C(=O)N[C@@H](CCCNC(=N)N)C(=O)N[C@@H](Cc1ccccc1)C(N)=O` [FLP-3-3, EAEEPLGTMRFamide] (H-EAEEPLGTMRF-NH2), in that order: 0.867 µM and 0.288 µM.
For `CSCC[C@H](NC(=O)[C@@H](NC(=O)CNC(=O)[C@H](CC(C)C)NC(=O)[C@@H]1CCCN1C(=O)[C@@H](N)CC(N)=O)[C@@H](C)O)C(=O)N[C@@H](CCCNC(=N)N)C(=O)N[C@@H](Cc1ccccc1)C(N)=O` [FLP-3-4, NPLGTMRFamide] (H-NPLGTMRF-NH2), in that order: 0.427 µM and 0.0107 µM.
Consider `CSCC[C@H](NC(=O)[C@@H](NC(=O)CNC(=O)[C@H](Cc1ccccc1)NC(=O)[C@H](CC(C)C)NC(=O)[C@H](C)NC(=O)[C@H](CC(=O)O)NC(=O)[C@H](CCC(=O)O)NC(=O)[C@H](CO)NC(=O)[C@H](C)N)[C@@H](C)O)C(=O)N[C@@H](CCCNC(=N)N)C(=O)N[C@@H](Cc1ccccc1)C(N)=O` [FLP-3-5, ASEDALFGTMRFamide] (H-ASEDALFGTMRF-NH2), for which the EC50 on NPR-10B is 1.1 µM; at FRPR-16 (luminescence 30 s), 0.0721 µM.
Turning to `CSCC[C@H](NC(=O)[C@@H](NC(=O)CNC(=O)[C@H](Cc1ccccc1)NC(=O)[C@@H]1CCCN1C(=O)[C@H](CCC(=O)O)NC(=O)[C@H](C)NC(=O)[C@@H](N)CO)[C@@H](C)O)C(=O)N[C@@H](CCCNC(=N)N)C(=O)N[C@@H](Cc1ccccc1)C(N)=O` [FLP-3-7, SAEPFGTMRFamide] (H-SAEPFGTMRF-NH2), the EC50 on NPR-10B (luminescence 30 s) amounted to 0.439 µM; on FRPR-16 (luminescence 30 s) it was 0.0395 µM.
As for `CSCC[C@H](NC(=O)[C@@H](NC(=O)CNC(=O)[C@H](Cc1ccccc1)NC(=O)[C@@H]1CCCN1C(=O)[C@H](C)NC(=O)[C@H](CO)NC(=O)[C@H](CC(=O)O)NC(=O)[C@H](CC(=O)O)NC(=O)[C@H](C)NC(=O)[C@@H](N)CO)[C@@H](C)O)C(=O)N[C@@H](CCCNC(=N)N)C(=O)N[C@@H](Cc1ccccc1)C(N)=O` [FLP-3-8, SADDSAPFGTMRFamide] (H-SADDSAPFGTMRF-NH2), at FRPR-16, the EC50 was found to be 1.6 µM.
For `CSCC[C@H](NC(=O)[C@@H](NC(=O)CNC(=O)[C@H](Cc1ccccc1)NC(=O)[C@@H]1CCCN1C(=O)[C@@H](NC(=O)[C@H](CC(=O)O)NC(=O)[C@H](CC(N)=O)NC(=O)[C@H](CCC(=O)O)NC(=O)[C@@H]1CCCN1C(=O)[C@@H](N)CC(N)=O)[C@@H](C)O)[C@@H](C)O)C(=O)N[C@@H](CCCNC(=N)N)C(=O)N[C@@H](Cc1ccccc1)C(N)=O` [FLP-3-9, NPENDTPFGTMRFamide] (H-NPENDTPFGTMRF-NH2), the values for the EC50 at NPR-10B (luminescence 30 s) and on FRPR-16 (luminescence 30 s) were 0.76 µM and 0.0883 µM, respectively.
`C[C@H](CCCC/C=C/C(=O)O)O[C@@H]1O[C@@H](C)[C@H](O)C[C@H]1O` [ascr#3]: in the test with C. elegans, the “Attractive response, in words” value is on record as “no defect”.
Turning to “EDGNAPFGTMKF-NH2 [FLP-3-6, flp-3 encoded peptide with R-to-K mutation within the C-terminal motif]”, the “Activation of NPR-10 (NPR-10B), in words” value on NPR-10B (setting [1]) is given as “activated no receptors; also recorded: did not activate either receptor”. The “Activation of NPR-10A, in words” value in the test with NPR-10A is “activated no receptors”. Moreover, the “Activation of FRPR-16, in words” value at FRPR-16 (setting [1]) is “activated no receptors; also recorded: did not activate either receptor”.
